Test results published in article PMC8037182, “Solvothermal Synthesis of Multiple Dihydropyrimidinones at a Time as Inhibitors of Eg5” (Molecules, 2021).

Key:
L929 cell line = assay: Cytotoxicity MTS assay, L929 cell line; format: cell-based; settings: for OD490 values, Mean / OD490 values, Well 1 / OD490 values, Well 2 / OD490 values, Well 3: L929 cell line, first assay
Outline: (§1)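 Absorbance at 490 nm after a 2 h MTS step at 37 °C gave cell viability. Before that, cells plated at 1000/well were treated for 24 h with compounds spanning 0.5–100 µM (final). IC50 values were fitted by non-linear regression of percent viability versus concentration.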

Hela cell line = assay: Cytotoxicity MTS assay, Hela cell line; format: cell-based; settings: for OD490 value, Mean / OD490 value, Well 1 / OD490 value, Well 2 / OD490 value, Well 3: Hela cell line, MTS;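 for OD490 value, Mean: blank control wells received 0.025% DMSO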;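 for OD490 value, Well 1: blank control wells received 0.025% DMSO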;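 for OD490 value, Well 2: blank control wells received 0.025% DMSO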;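 for OD490 value, Well 3: blank control wells received 0.025% DMSO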
Outline: as §1

## CCOC(=O)c1c(C2NC(=O)NC(C)=C2C(=O)Nc2ccccc2C)[nH]c(C(=O)OC)c1C (centres unmarked) [D2]
L929 cell line; 0.5μM
  OD490 values, Mean: 1.3610
  OD490 values, Well 1: 1.3640
  OD490 values, Well 2: 1.3358
  OD490 values, Well 3: 1.3832
L929 cell line; 1μM
  OD490 values, Mean: 1.4199
  OD490 values, Well 1: 1.4170
  OD490 values, Well 2: 1.4018
  OD490 values, Well 3: 1.4410
L929 cell line; 10μM
  OD490 values, Mean: 1.4901
  OD490 values, Well 1: 1.4578
  OD490 values, Well 2: 1.4940
  OD490 values, Well 3: 1.5185
L929 cell line; 25μM
  OD490 values, Mean: 1.5070
  OD490 values, Well 1: 1.5039
  OD490 values, Well 2: 1.5321
  OD490 values, Well 3: 1.4850
L929 cell line; 50μM
  OD490 values, Mean: 1.4864
  OD490 values, Well 1: 1.5650
  OD490 values, Well 2: 1.4275
  OD490 values, Well 3: 1.4667
L929 cell line; 100μM
  OD490 values, Mean: 1.2316
  OD490 values, Well 1: 1.2364
  OD490 values, Well 2: 1.1967
  OD490 values, Well 3: 1.2618
L929 cell line; MTS assay, 24 h exposure, ordinary fibroblast, not cancer cells
  IC50: > 150 µM
Hela cell line; 0.5μM, first assay
  OD490 value, Mean: 2.6241
  OD490 value, Well 1: 2.6512
  OD490 value, Well 2: 2.7230
  OD490 value, Well 3: 2.4982
Hela cell line; 0.5μM, second assay
  OD490 value, Mean: 2.6365
  OD490 value, Well 1: 2.7038
  OD490 value, Well 2: 2.6687
  OD490 value, Well 3: 2.5371
Hela cell line; 0.5μM, third assay
  OD490 value, Mean: 2.6753
  OD490 value, Well 1: 2.5959
  OD490 value, Well 2: 2.8645
  OD490 value, Well 3: 2.5656
Hela cell line; 1μM, first assay
  OD490 value, Mean: 2.5821
  OD490 value, Well 1: 2.5465
  OD490 value, Well 2: 2.6265
  OD490 value, Well 3: 2.5734
Hela cell line; 1μM, second assay
  OD490 value, Mean: 2.6167
  OD490 value, Well 1: 2.6874
  OD490 value, Well 2: 2.5987
  OD490 value, Well 3: 2.5641
Hela cell line; 1μM, third assay
  OD490 value, Mean: 2.6782
  OD490 value, Well 1: 2.5645
  OD490 value, Well 2: 2.7848
  OD490 value, Well 3: 2.6854
Hela cell line; 10μM, first assay
  OD490 value, Mean: 2.6025
  OD490 value, Well 1: 2.4718
  OD490 value, Well 2: 2.7280
  OD490 value, Well 3: 2.6077
Hela cell line; 10μM, second assay
  OD490 value, Mean: 2.7525
  OD490 value, Well 1: 2.8301
  OD490 value, Well 2: 2.6874
  OD490 value, Well 3: 2.7401
Hela cell line; 10μM, third assay
  OD490 value, Mean: 2.6780
  OD490 value, Well 1: 2.5659
  OD490 value, Well 2: 2.6898
  OD490 value, Well 3: 2.7784
Hela cell line; 25μM, first assay
  OD490 value, Mean: 2.6414
  OD490 value, Well 1: 2.4669
  OD490 value, Well 2: 2.6653
  OD490 value, Well 3: 2.7919
Hela cell line; 25μM, second assay
  OD490 value, Mean: 2.6474
  OD490 value, Well 1: 2.8835
  OD490 value, Well 2: 2.4699
  OD490 value, Well 3: 2.5888
Hela cell line; 25μM, third assay
  OD490 value, Mean: 2.6061
  OD490 value, Well 1: 2.5656
  OD490 value, Well 2: 2.6632
  OD490 value, Well 3: 2.5894
Hela cell line; 50μM, first assay
  OD490 value, Mean: 2.6499
  OD490 value, Well 1: 2.7237
  OD490 value, Well 2: 2.5642
  OD490 value, Well 3: 2.6617
Hela cell line; 50μM, second assay
  OD490 value, Mean: 2.5211
  OD490 value, Well 1: 2.6654
  OD490 value, Well 2: 2.5656
  OD490 value, Well 3: 2.3324
Hela cell line; 50μM, third assay
  OD490 value, Mean: 2.6330
  OD490 value, Well 1: 2.6547
  OD490 value, Well 2: 2.5655
  OD490 value, Well 3: 2.6788
Hela cell line; 100μM, first assay
  OD490 value, Mean: 1.9886
  OD490 value, Well 1: 2.0164
  OD490 value, Well 2: 1.9699
  OD490 value, Well 3: 1.9794
Hela cell line; 100μM, second assay
  OD490 value, Mean: 2.0267
  OD490 value, Well 1: 1.8863
  OD490 value, Well 2: 1.9925
  OD490 value, Well 3: 2.2014
Hela cell line; 100μM, third assay
  OD490 value, Mean: 2.0032
  OD490 value, Well 1: 1.9987
  OD490 value, Well 2: 2.0123
  OD490 value, Well 3: 1.9986
Hela cell line; MTS assay, 24 h exposure
  IC50: > 150 µM
